{
  "source": "ChEMBL document CHEMBL1133435",
  "about": "“Syntheses and evaluation of naphthalenyl- and chromenyl-pyrrolyl-benzoic acids as potent and selective retinoic acid receptor alpha agonists” (Bioorg Med Chem Lett, 2000)",
  "key": {"[1]": {"molecular_target": "T1, Retinoic acid receptor alpha (Homo sapiens) (UniProt P10276)", "T1 sequence (whole entry)": "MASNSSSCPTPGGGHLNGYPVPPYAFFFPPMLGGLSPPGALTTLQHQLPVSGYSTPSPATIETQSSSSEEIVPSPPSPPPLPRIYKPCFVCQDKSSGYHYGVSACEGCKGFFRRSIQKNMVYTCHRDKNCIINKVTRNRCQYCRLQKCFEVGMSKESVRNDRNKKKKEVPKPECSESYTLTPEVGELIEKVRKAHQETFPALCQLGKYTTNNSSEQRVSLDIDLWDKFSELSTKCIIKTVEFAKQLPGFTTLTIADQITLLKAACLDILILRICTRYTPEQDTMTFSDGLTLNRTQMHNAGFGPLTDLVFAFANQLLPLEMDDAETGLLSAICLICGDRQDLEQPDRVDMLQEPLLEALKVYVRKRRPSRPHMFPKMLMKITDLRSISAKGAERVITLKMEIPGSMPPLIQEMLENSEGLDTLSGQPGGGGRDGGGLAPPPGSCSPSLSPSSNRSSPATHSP", "assay": "Relative transcriptional activation in CV-1 cells expressing RAR alpha receptor compared to ATRA", "format": "functional, cell-based", "settings": "Cercopithecidae"}, "[2]": {"molecular_target": "T2, Retinoic acid receptor beta (Homo sapiens) (UniProt P10826)", "T2 sequence (whole entry)": "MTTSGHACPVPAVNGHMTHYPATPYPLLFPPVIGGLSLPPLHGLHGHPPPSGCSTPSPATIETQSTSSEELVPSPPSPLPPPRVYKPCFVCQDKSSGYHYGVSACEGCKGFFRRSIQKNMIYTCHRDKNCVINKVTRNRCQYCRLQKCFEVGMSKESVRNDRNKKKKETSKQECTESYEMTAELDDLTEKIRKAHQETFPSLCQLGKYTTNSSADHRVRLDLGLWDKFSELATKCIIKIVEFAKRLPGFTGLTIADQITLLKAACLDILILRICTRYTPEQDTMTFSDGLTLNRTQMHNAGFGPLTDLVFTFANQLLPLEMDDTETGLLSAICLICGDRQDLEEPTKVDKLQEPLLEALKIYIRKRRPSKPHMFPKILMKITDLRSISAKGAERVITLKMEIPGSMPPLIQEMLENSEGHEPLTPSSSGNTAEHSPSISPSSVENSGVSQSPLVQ", "assay": "Relative transcriptional activation in CV-1 cells expressing RAR beta receptor compared to ATRA; Not detectable", "format": "functional, cell-based", "settings": "Cercopithecidae"}, "[3]": {"molecular_target": "T3, Retinoic acid receptor gamma (Homo sapiens) (UniProt P13631)", "T3 sequence (whole entry)": "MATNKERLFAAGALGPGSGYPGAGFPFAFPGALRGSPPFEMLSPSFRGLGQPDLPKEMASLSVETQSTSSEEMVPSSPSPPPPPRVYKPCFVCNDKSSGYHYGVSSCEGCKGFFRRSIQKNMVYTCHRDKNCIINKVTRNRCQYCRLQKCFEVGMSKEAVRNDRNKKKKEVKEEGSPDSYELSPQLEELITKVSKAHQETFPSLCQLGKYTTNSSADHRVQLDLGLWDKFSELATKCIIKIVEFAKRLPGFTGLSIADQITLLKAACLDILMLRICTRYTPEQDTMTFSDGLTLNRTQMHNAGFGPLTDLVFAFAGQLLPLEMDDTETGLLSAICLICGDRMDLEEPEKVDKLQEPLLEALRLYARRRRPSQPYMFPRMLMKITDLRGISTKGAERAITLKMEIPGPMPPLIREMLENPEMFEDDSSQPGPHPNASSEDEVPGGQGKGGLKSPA", "assay": "Relative transcriptional activation in CV-1 cells expressing RAR gamma receptor compared to ATRA; Not detectable", "format": "functional, cell-based", "settings": "Cercopithecidae"}, "[4]": {"molecular_target": "T2, Retinoic acid receptor beta (Homo sapiens)", "assay": "Binding affinity for Retinoic acid receptor beta relative to ATRA"}, "[5]": {"molecular_target": "T3, Retinoic acid receptor gamma (Homo sapiens)", "assay": "Binding affinity for Retinoic acid receptor gamma relative to ATRA"}, "[6]": {"molecular_target": "T1, Retinoic acid receptor alpha (Homo sapiens)", "assay": "Binding affinity for Retinoic acid receptor alpha relative to ATRA"}, "[7]": {"molecular_target": "T2, Retinoic acid receptor beta (Homo sapiens)", "assay": "Relative transcriptional activation in CV-1 cells expressing RAR beta receptor compared to ATRA", "format": "functional, cell-based", "settings": "Cercopithecidae"}, "[8]": {"molecular_target": "T3, Retinoic acid receptor gamma (Homo sapiens)", "assay": "Relative transcriptional activation in CV-1 cells expressing RAR gamma receptor compared to ATRA", "format": "functional, cell-based", "settings": "Cercopithecidae"}, "[9]": {"molecular_target": "T1, Retinoic acid receptor alpha (Homo sapiens)", "settings": "Cercopithecidae; CV-1", "description": "Transcriptional activation in CV-1 cells expressing RAR alpha receptor"}, "[10]": {"molecular_target": "T2, Retinoic acid receptor beta (Homo sapiens)", "settings": "Cercopithecidae; CV-1", "description": "Transcriptional activation in CV-1 cells expressing RAR beta receptor"}, "[11]": {"molecular_target": "T1, Retinoic acid receptor alpha (Homo sapiens)", "assay": "Relative transcriptional activation in CV-1 cells expressing RAR alpha receptor compared to ATRA; Not detectable", "format": "functional, cell-based", "settings": "Cercopithecidae"}, "[12]": {"molecular_target": "T1, Retinoic acid receptor alpha (Homo sapiens)", "assay": "Binding affinity for Retinoic acid receptor alpha relative to ATRA; Not detectable"}, "[13]": {"test_system": "HL-60", "assay": "Induction of HL-60 cell differentiation", "format": "functional", "settings": "Homo sapiens"}},
  "data": [
    {"smiles": "Cc1cccc2ccc(-c3ccc(-c4ccc(C(=O)O)cc4)[nH]3)cc12", "values": [
      {"measurement": "Relative EC30", "setting": "[1]", "value": 0.049, "unit": "µM"},
      {"measurement": "Relative EC30", "setting": "[2]", "value": "> 10", "unit": "µM"},
      {"measurement": "Relative EC30", "setting": "[3]", "value": "> 10", "unit": "µM"},
      {"measurement": "Relative IC50", "setting": "[4]", "value": "> 1", "unit": "µM"},
      {"measurement": "Relative IC50", "setting": "[5]", "value": "> 1", "unit": "µM"},
      {"measurement": "Relative IC50", "setting": "[6]", "value": 0.015, "unit": "µM"}
    ]},
    {"smiles": "Cc1ccc(C)c2cc(-c3ccc(-c4ccc(C(=O)O)cc4)[nH]3)ccc12", "values": [
      {"measurement": "Relative EC30", "setting": "[1]", "value": 0.0028, "unit": "µM"},
      {"measurement": "Relative EC30", "setting": "[7]", "value": 0.25, "unit": "µM"},
      {"measurement": "Relative EC30", "setting": "[8]", "value": 2.2, "unit": "µM"},
      {"measurement": "Relative IC50", "setting": "[4]", "value": "> 1", "unit": "µM"},
      {"measurement": "Relative IC50", "setting": "[5]", "value": "> 1", "unit": "µM"},
      {"measurement": "Relative IC50", "setting": "[6]", "value": 0.024, "unit": "µM"}
    ]},
    {"smiles": "CC(/C=C/C=C(\\C)c1ccc2c(C)ccc(C)c2c1)=C\\C(=O)O", "values": [
      {"measurement": "Relative EC30", "setting": "[1]", "value": 0.02, "unit": "µM"},
      {"measurement": "Relative EC30", "setting": "[7]", "value": 0.011, "unit": "µM"},
      {"measurement": "Relative EC30", "setting": "[8]", "value": 0.66, "unit": "µM"},
      {"measurement": "Relative IC50", "setting": "[4]", "value": 0.049, "unit": "µM"},
      {"measurement": "Relative IC50", "setting": "[5]", "value": 0.227, "unit": "µM"},
      {"measurement": "Relative IC50", "setting": "[6]", "value": 0.0027, "unit": "µM"}
    ]},
    {"smiles": "Cc1ccc(C)c2c1C=C(c1ccc(-c3ccc(C(=O)O)cc3)[nH]1)CO2", "values": [
      {"measurement": "Relative EC30", "setting": "[1]", "value": 0.0018, "unit": "µM"},
      {"measurement": "Relative EC30", "setting": "[7]", "value": 0.24, "unit": "µM"},
      {"measurement": "Relative EC30", "setting": "[8]", "value": 3.6, "unit": "µM"},
      {"measurement": "Relative IC50", "setting": "[4]", "value": "> 1", "unit": "µM"},
      {"measurement": "Relative IC50", "setting": "[5]", "value": "> 1", "unit": "µM"},
      {"measurement": "Relative IC50", "setting": "[6]", "value": 0.0097, "unit": "µM"}
    ]},
    {"smiles": "O=C(O)c1ccc(-c2ccc(-c3ccc4cccc(-c5ccccc5)c4c3)[nH]2)cc1", "values": [
      {"measurement": "Relative EC30", "setting": "[1]", "value": "> 10", "unit": "µM"},
      {"measurement": "Relative EC30", "setting": "[7]", "value": 0.88, "unit": "µM"},
      {"measurement": "Relative EC30", "setting": "[3]", "value": "> 10", "unit": "µM"},
      {"measurement": "Relative IC50", "setting": "[4]", "value": "> 1", "unit": "µM"},
      {"measurement": "Relative IC50", "setting": "[5]", "value": "> 1", "unit": "µM"},
      {"measurement": "Relative IC50", "setting": "[6]", "value": 0.0014, "unit": "µM"}
    ]},
    {"smiles": "CC1=C(/C=C/C(C)=C/C=C/C(C)=C/C(=O)O)C(C)(C)CCC1", "values": [
      {"measurement": "EC30", "setting": "[9]", "value": 0.0011, "unit": "µM"},
      {"measurement": "EC30", "setting": "[10]", "value": 0.00069, "unit": "µM"}
    ]},
    {"smiles": "Cc1c(C)c(C)c2cc(-c3ccc(-c4ccc(C(=O)O)cc4)[nH]3)ccc2c1C", "values": [
      {"measurement": "Relative EC30", "setting": "[11]", "value": "> 10", "unit": "µM"},
      {"measurement": "Relative EC30", "setting": "[2]", "value": "> 10", "unit": "µM"},
      {"measurement": "Relative EC30", "setting": "[3]", "value": "> 10", "unit": "µM"},
      {"measurement": "Relative IC50", "setting": "[4]", "value": "> 1", "unit": "µM"},
      {"measurement": "Relative IC50", "setting": "[5]", "value": "> 1", "unit": "µM"},
      {"measurement": "Relative IC50", "setting": "[12]", "value": "> 1", "unit": "µM"}
    ]},
    {"smiles": "Cc1cc(C)c2ccc(-c3ccc(-c4ccc(C(=O)O)cc4)[nH]3)cc2c1", "values": [
      {"measurement": "Relative EC30", "setting": "[1]", "value": 0.09, "unit": "µM"},
      {"measurement": "Relative EC30", "setting": "[2]", "value": "> 10", "unit": "µM"},
      {"measurement": "Relative EC30", "setting": "[3]", "value": "> 10", "unit": "µM"},
      {"measurement": "Relative IC50", "setting": "[4]", "value": "> 1", "unit": "µM"},
      {"measurement": "Relative IC50", "setting": "[5]", "value": "> 1", "unit": "µM"},
      {"measurement": "Relative IC50", "setting": "[12]", "value": "> 1", "unit": "µM"}
    ]},
    {"smiles": "CC(/C=C/C=C(\\C)c1ccc2c(c1)C(C)(C)CCC2(C)C)=C\\C(=O)O", "values": [
      {"measurement": "Relative EC30", "setting": "[1]", "value": 0.00027, "unit": "µM"},
      {"measurement": "Relative EC30", "setting": "[7]", "value": 0.0002, "unit": "µM"},
      {"measurement": "Relative EC30", "setting": "[8]", "value": 0.00024, "unit": "µM"},
      {"measurement": "Relative IC50", "setting": "[4]", "value": 0.00034, "unit": "µM"},
      {"measurement": "Relative IC50", "setting": "[5]", "value": 0.00067, "unit": "µM"},
      {"measurement": "Relative IC50", "setting": "[6]", "value": 0.00049, "unit": "µM"}
    ]},
    {"smiles": "CC(C)c1cccc2ccc(-c3ccc(-c4ccc(C(=O)O)cc4)[nH]3)cc12", "values": [
      {"measurement": "Relative EC30", "setting": "[1]", "value": 0.0011, "unit": "µM"},
      {"measurement": "Relative EC30", "setting": "[7]", "value": 0.078, "unit": "µM"},
      {"measurement": "Relative EC30", "setting": "[8]", "value": 0.088, "unit": "µM"},
      {"measurement": "EC30", "setting": "[13]", "value": 0.1, "unit": "µM"},
      {"measurement": "Relative IC50", "setting": "[4]", "value": "> 1", "unit": "µM"},
      {"measurement": "Relative IC50", "setting": "[5]", "value": 0.91, "unit": "µM"},
      {"measurement": "Relative IC50", "setting": "[6]", "value": "< 0.001", "unit": "µM"}
    ]},
    {"smiles": "Cc1cccc2c1C=C(c1ccc(-c3ccc(C(=O)O)cc3)[nH]1)CO2", "values": [
      {"measurement": "Relative EC30", "setting": "[1]", "value": 0.0045, "unit": "µM"},
      {"measurement": "Relative EC30", "setting": "[7]", "value": 1.03, "unit": "µM"},
      {"measurement": "Relative EC30", "setting": "[8]", "value": 5.25, "unit": "µM"},
      {"measurement": "Relative IC50", "setting": "[4]", "value": "> 1", "unit": "µM"},
      {"measurement": "Relative IC50", "setting": "[5]", "value": "> 1", "unit": "µM"},
      {"measurement": "Relative IC50", "setting": "[6]", "value": 0.05, "unit": "µM"}
    ]}
  ]
}
